Measured values: the NIST ThermoML archive (doi:10.1016/j.jct.2006.09.001)
Values joined by “and” are separate entries in the source; they are usually repeats but may differ in a detail not shown here. Identical values can stand only once. Numbers after ± are expanded uncertainties.

How the values were obtained:
[1] = Molar enthalpy of transition or fusion; details: Crystal; DSC
[2] = for Normal melting temperature: DTA

[Fe+2].c1cc[cH-]c1.c1ccc(C[c-]2cccc2)cc1 [benzylferrocene]
Details	Molar enthalpy of transition or fusion [kJ/mol]
[1]	23.7 ± 0.5

[2], Crystal
Details	vapor or sublimation pressure [kPa]
311.7 K	1.2e-05 ± 2e-06
313 K	1.3e-05 ± 2e-06
318 K	2.7e-05 ± 3e-06
323.3 K	5.2e-05 ± 6e-06
325.1 K	6.4e-05 ± 7e-06
325.3 K	6.5e-05 ± 7e-06
327.2 K	8.6e-05 ± 9e-06
331.3 K	0.000132 ± 1.5e-05
331.9 K	0.000152 ± 1.6e-05
333.3 K	0.00017 ± 1.8e-05
335.9 K	0.000236 ± 2.4e-05
338.4 K	0.000303 ± 3.2e-05
338.9 K	0.000323 ± 3.3e-05
341.3 K	0.000442 ± 4.6e-05

[2], Liquid, Transpiration method
Details	vapor or sublimation pressure [kPa]
350.7 K	0.00111 ± 6e-05
352.9 K	0.00129 ± 7e-05
356.9 K	0.00181 ± 0.0001
361 K	0.00247 ± 0.00013
365 K	0.00332 ± 0.00017
369 K	0.0046 ± 0.00024
373.1 K	0.00602 ± 0.00031
377.1 K	0.0082 ± 0.00043

Details	Normal melting temperature [°C]
[2], Crystal	76.1 ± 0.7

OC[c-]1cccc1.[Fe+2].c1cc[cH-]c1 [(hydroxymethyl)ferrocene]
Details	Molar enthalpy of transition or fusion [kJ/mol]
[1]	23.7 ± 0.8

[2]
Details	vapor or sublimation pressure
313.3 K, Crystal	0.00011 ± 1e-05 kPa
316.7 K, Crystal	0.00015 ± 2e-05 kPa
320.4 K, Crystal	0.00025 ± 3e-05 kPa
323.3 K, Crystal	0.00036 ± 4e-05 kPa
327.3 K, Crystal	0.00056 ± 6e-05 kPa
330.4 K, Crystal	0.00079 ± 8e-05 kPa and 0.00078 ± 8e-05 kPa
333.7 K, Crystal	0.00116 ± 0.00012 kPa
333.8 K, Crystal	0.00111 ± 0.00011 kPa
335.9 K, Crystal	0.0015 ± 0.00015 kPa
336.2 K, Crystal	0.00149 ± 0.00015 kPa
339.8 K, Crystal	0.00218 ± 0.00022 kPa
341.1 K, Crystal	0.00254 ± 0.00026 kPa
342 K, Crystal	0.0029 ± 0.0003 kPa
343.3 K, Crystal	0.00329 ± 0.00034 kPa
346 K, Crystal	0.00416 ± 0.00042 kPa
347.3 K, Crystal	0.00468 ± 0.00048 kPa
347.4 K, Crystal	0.00492 ± 0.0005 kPa
353.2 K, Liquid	0.00788 ± 0.0008 kPa
355.2 K, Liquid	0.00938 ± 0.00095 kPa
357.3 K, Liquid	0.0104 ± 0.001 kPa
358.9 K, Liquid	0.01181 ± 0.0012 kPa
359.6 K, Liquid	0.01286 ± 0.0013 kPa
361.6 K, Liquid	0.01452 ± 0.0015 kPa
363.4 K, Liquid	0.01668 ± 0.0017 kPa
364.7 K, Liquid	0.01879 ± 0.0019 kPa
366.1 K, Liquid	0.02236 ± 0.0023 kPa
366.5 K, Liquid	0.02159 ± 0.0022 kPa
368.9 K, Liquid	0.02708 ± 0.0027 kPa
369 K, Liquid	0.02499 ± 0.0025 kPa
370.5 K, Liquid	0.02709 ± 0.0027 kPa
371.8 K, Liquid	0.03178 ± 0.0032 kPa
372.5 K, Liquid	0.03208 ± 0.0033 kPa
374 K, Liquid	0.03745 ± 0.0038 kPa
375.6 K, Liquid	0.03813 ± 0.0039 kPa
377 K, Liquid	0.04507 ± 0.0046 kPa
379.7 K, Liquid	0.05509 ± 0.0056 kPa
383.7 K, Liquid	0.06949 ± 0.007 kPa
385 K, Liquid	0.07524 ± 0.0076 kPa
386.8 K, Liquid	0.08377 ± 0.0084 kPa
389.6 K, Liquid	0.09595 ± 0.0097 kPa
393.7 K, Liquid	0.1301 ± 0.013 kPa

Details	Normal melting temperature [°C]
[2], Crystal	79.1 ± 0.7

[CH]1C=CC=C1.[CH]1C=CC=C1.[Fe] [ferrocene]
Details	Molar enthalpy of transition or fusion [kJ/mol]
[1]	18.3 ± 0.6

[2], Crystal, Transpiration method
Details	vapor or sublimation pressure
289.7 K	0.00041 ± 3e-05 kPa
299.6 K	0.00116 ± 6e-05 kPa
303.5 K	0.00169 ± 9e-05 kPa
303.6 K	0.00172 ± 9e-05 kPa
307.5 K	0.00249 ± 0.00014 kPa
312.5 K	0.00388 ± 0.00021 kPa
317.6 K	0.00605 ± 0.00033 kPa
322.6 K	0.00945 ± 0.00051 kPa
322.7 K	0.00932 ± 0.0005 kPa
327.6 K	0.014 ± 0.00075 kPa
332.8 K	0.02131 ± 0.0011 kPa and 0.02096 ± 0.0011 kPa
337.9 K	0.03024 ± 0.0016 kPa
342.9 K	0.04379 ± 0.0023 kPa
348 K	0.06337 ± 0.0034 kPa
353.1 K	0.09205 ± 0.0049 kPa
358.3 K	0.1334 ± 0.007 kPa
363.4 K	0.1803 ± 0.0094 kPa

Details	Normal melting temperature [°C]
[2], Crystal	174.7 ± 0.5

O=C(c1ccccc1)c1ccc[cH-]1.[Fe+2].c1cc[cH-]c1 [benzoylferrocene]
Details	Molar enthalpy of transition or fusion [kJ/mol]
[1]	29.9 ± 0.7

[2], Transpiration method
Details	vapor or sublimation pressure [kPa]
342.3 K, Crystal	2.2e-05 ± 1e-06
347.2 K, Crystal	3.8e-05 ± 2e-06
350.2 K, Crystal	5.3e-05 ± 3e-06
350.9 K, Crystal	5.8e-05 ± 3e-06
353 K, Crystal	7.5e-05 ± 4e-06
356 K, Crystal	9.7e-05 ± 5e-06
357.8 K, Crystal	0.000123 ± 7e-06
360.3 K, Crystal	0.000164 ± 9e-06
363 K, Crystal	0.00021 ± 1.1e-05
364 K, Crystal	0.000246 ± 1.4e-05
366.4 K, Crystal	0.000313 ± 1.7e-05
370 K, Crystal	0.000441 ± 2.4e-05
371.7 K, Crystal	0.000553 ± 3.1e-05
373.6 K, Crystal	0.000674 ± 3.7e-05
377.3 K, Crystal	0.000963 ± 5.2e-05
379.3 K, Crystal	0.001207 ± 6.5e-05
384 K, Liquid	0.00187 ± 0.0001
386.2 K, Liquid	0.00223 ± 0.00012
389.1 K, Liquid	0.0027 ± 0.00014
392.4 K, Liquid	0.00338 ± 0.00018
396 K, Liquid	0.00428 ± 0.00022
397.9 K, Liquid	0.00488 ± 0.00025
402 K, Liquid	0.00618 ± 0.00035
402.6 K, Liquid	0.00664 ± 0.00034
404.8 K, Liquid	0.00742 ± 0.00039
408.8 K, Liquid	0.00977 ± 0.0005
408.9 K, Liquid	0.00961 ± 0.00049
410.6 K, Liquid	0.01054 ± 0.00054
413.6 K, Liquid	0.01254 ± 0.00065
416.8 K, Liquid	0.01548 ± 0.0008
419.7 K, Liquid	0.01891 ± 0.00097
423.3 K, Liquid	0.02256 ± 0.0012
426.6 K, Liquid	0.02806 ± 0.0014
429.6 K, Liquid	0.03229 ± 0.0016

Details	Normal melting temperature [°C]
[2], Crystal	109.5 ± 0.5
